# Results published in US10604526B2, “Chemokine receptor modulators and uses thereof” (RAPT THERAPEUTICS, INC., priority 2016, dated 2020).
# Biological target: T1, hCCR4 (Homo sapiens, UniProt P51679)
# T1 sequence (P51679 1-360): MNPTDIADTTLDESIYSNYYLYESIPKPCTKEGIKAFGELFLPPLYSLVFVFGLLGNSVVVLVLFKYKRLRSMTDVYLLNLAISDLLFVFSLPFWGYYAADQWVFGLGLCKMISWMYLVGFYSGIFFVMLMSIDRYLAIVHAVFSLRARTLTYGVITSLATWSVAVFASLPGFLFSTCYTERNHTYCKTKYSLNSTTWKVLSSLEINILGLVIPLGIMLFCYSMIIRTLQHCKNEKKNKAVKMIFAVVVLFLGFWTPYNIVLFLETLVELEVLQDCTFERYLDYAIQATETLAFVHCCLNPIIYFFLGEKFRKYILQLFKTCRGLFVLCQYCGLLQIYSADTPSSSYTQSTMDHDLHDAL
# Experiment: Calcium flux assay
# Format: cell-based
# Conditions: Chem5-hCCR4 cells, CCL22 at EC80 of 1.5 nM, FLIPR Calcium 6 dye; read-out: Potency (IC50)
# Description: Calcium Flux Assay. Compounds were evaluated in a calcium flux assay substantially performed as follows. Chem5-hCCR4 cells (EMD Millipore, Hayward, Calif.; HTS009C) were cultured under standard conditions and frozen in aliquots of 10×10^6 cells/mL. The day prior to compound testing, a vial was rapidly thawed and pipetted into 20 mL media (DMEM+10% FBS+1% Pen-Strep+1% L-glutamine). Cells were harvested by centrifugation and re-suspended in fresh culture medium. 25 μL of cell suspension was seeded into 384-well plates (Corning, Tewksbury, Mass.; CellBind with black wall/clear bottom). The plates were centrifuged at 300 g for 10 seconds and incubated overnight at 37° C. and 5% CO2. The day of compound testing, media was removed from the plates and 25 μL serum free media was added to each well. Plates were returned to the incubator for 2 h. 25 μL assay buffer (Hank's balanced salt solution+20 mM HEPES pH 7.4) containing FLIPR Calcium 6 dye (Molecular Devices, Sunnyvale, Calif.; # R8191) and probenecid (2.5 mM) was added to each well and incubated at 37° C. and 5% CO2 for 2 h. Compounds in DMSO were added to the plates using an HP D300e digital dispenser, and all wells were normalized to contain 0.25 μL (0.5%) DMSO. Plates were incubated for 1 hour at 37° C. and 5% CO2. CCL22 (Peprotech; Rockyhill, N.J.) was diluted in assay buffer containing 0.1% BSA to 7.5 nM (corresponding to 5×EC80 of 1.5 nM).
# Assay plates and working solution of CCL22 were transferred to the FlexStation plate reader (Molecular Devices) at 37° C. for 5 min of equilibration. Fluorescence recordings at 485 excitation/525 emission were performed at 2.5 second intervals. At t=16 seconds, 12.5 μL of CCL22 solution was added to each well and reads continued for 30 seconds at 2.5 second intervals. The minimum fluorescence (Fmin) was calculated by averaging the reads prior to ligand addition and the change in fluorescence (ΔF) was calculated by subtracting the Fmin from the average of the reads following ligand addition. The response ΔF/Fmin was plotted as a function of the compound concentration and the IC50 values were determined by non-linear regression analysis using a 4-parameter fit in either PRISM software (GraphPad; La Jolla, Calif.) or Dotmatics Browser.
row,IC50 [nM],Compound
1,< 100,"1-((R)-1-(2,4-dichlorophenyl)ethyl)-6-(3-((R)-1-((R)-4-hydroxybutan-2-yl)piperidin-3-yl)azetidin-1-yl)-1H-pyrazolo[3,4-b]pyrazine-3-carbonitrile and 1-((R)-1-(2,4-dichlorophenyl)ethyl)-6-(3-((R)-1-((S)-4-hydroxybutan-2-yl)piperidin-3-yl)azetidin-1-yl)-1H-pyrazolo[3,4-b]pyrazine-3-carbonitrile [Example 82]"
2,100 to 500,"1-((R)-1-(2,4-dichlorophenyl)ethyl)-6-(3-((S)-1-((R)-4-hydroxybutan-2-yl)piperidin-3-yl)azetidin-1-yl)-1H-pyrazolo[3,4-b]pyrazine-3-carbonitrile and 1-((R)-1-(2,4-dichlorophenyl)ethyl)-6-(3-((S)-1-((S)-4-hydroxybutan-2-yl)piperidin-3-yl)azetidin-1-yl)-1H-pyrazolo[3,4-b]pyrazine-3-carbonitrile [Example 83]"
3,> 500,"CCOC(=O)CN1CCCC(C2CN(c3cnc4c(C)nn([C@H](C)c5ccc(Cl)cc5Cl)c4n3)C2)C1 (mixture of isomers) [Example 1, Ethyl 2-((R)-3-(1-(1-((R)-1-(2,4-dichlorophenyl)ethyl)-3-methyl-1H-pyrazolo[3,4-b]pyrazin-6-yl)azetidin-3-yl)piperidin-1-yl)acetate 2,2,2-trifluoroacetate and 2,2,2-trifluoroacetate ethyl 2-((S)-3-(1-(1-((R)-1-(2,4-dichlorophenyl)ethyl)-3-methyl-1H-pyrazolo[3,4-b]pyrazin-6-yl)azetidin-3-yl)piperidin-1-yl)acetate]"
4,100 to 500,"Cc1nn([C@H](C)c2ccc(Cl)cc2Cl)c2nc(N3CC(C4CCCN(CCS(N)(=O)=O)C4)C3)cnc12 (mixture of isomers) [Example 4, 2-((R)-3-(1-(1-((R)-1-(2,4-dichlorophenyl)ethyl)-3-methyl-1H-pyrazolo[3,4-b]pyrazin-6-yl)azetidin-3-yl)piperidin-1-yl)ethane-1-sulfonamide and 2-((S)-3-(1-(1-((R)-1-(2,4-dichlorophenyl)ethyl)-3-methyl-1H-pyrazolo[3,4-b]pyrazin-6-yl)azetidin-3-yl)piperidin-1-yl)ethane-1-sulfonamide]"
5,100 to 500,"Cc1nn([C@H](C)c2ccc(Cl)cc2Cl)c2nc(N3CC(C4CCCN(CCC(=O)O)C4)C3)cnc12 (mixture of isomers) [Example 7, 3-((S)-3-(1-(1-((R)-1-(2,4-Dichlorophenyl)ethyl)-3-methyl-1H-pyrazolo[3,4-b]pyrazin-6-yl)azetidin-3-yl)piperidin-1-yl)propanoic acid and 3-((R)-3-(1-(1-((R)-1-(2,4-dichlorophenyl)ethyl)-3-methyl-1H-pyrazolo[3,4-b]pyrazin-6-yl)azetidin-3-yl)piperidin-1-yl)propanoic acid]"
6,> 500,Cc1nn([C@H](C)c2ccc(Cl)cc2Cl)c2nc(N3CC(C4CCCN(C5CC(C(=O)O)C5)C4)C3)cnc12 (mixture of isomers) [Example 16]
7,< 100,"C[C@H](c1ccc(Cl)cc1Cl)n1nc(C#N)c2ncc(N3CC(C4CCCN(CCS(C)(=O)=O)C4)C3)nc21 (mixture of isomers) [Example 23, 1-((R)-1-(2,4-Dichlorophenyl)ethyl)-6-(3-((S)-1-(2-(methylsulfonyl)ethyl)piperidin-3-yl)azetidin-1-yl)-1H-pyrazolo[3,4-b]pyrazine-3-carbonitrile and 1-((R)-1-(2,4-dichlorophenyl)ethyl)-6-(3-((R)-1-(2-(methylsulfonyl)ethyl)piperidin-3-yl)azetidin-1-yl)-1H-pyrazolo[3,4-b]pyrazine-3-carbonitrile]"
8,< 100,"C[C@H](c1ccc(Cl)cc1Cl)n1nc(C#N)c2ncc(N3CC(C4CCCN(CCC(N)=O)C4)C3)nc21 (mixture of isomers) [Example 24, 3-((S)-3-(1-(3-Cyano-1-((R)-1-(2,4-dichlorophenyl)ethyl)-1H-pyrazolo[3,4-b]pyrazin-6-yl)azetidin-3-yl)piperidin-1-yl)propanamide and 3-((R)-3-(1-(3-cyano-1-((R)-1-(2,4-dichlorophenyl)ethyl)-1H-pyrazolo[3,4-b]pyrazin-6-yl)azetidin-3-yl)piperidin-1-yl)propanamide]"
9,< 100,CC(O)CN1CCCC(C2CN(c3cnc4c(C#N)nn([C@H](C)c5ccc(Cl)cc5Cl)c4n3)C2)C1 (mixture of isomers) [Example 27]
10,< 100,"Cc1nn([C@H](C)c2ccc(Cl)cc2Cl)c2nc(N3CC(C4CCCN(CCO)C4)C3)ncc12 (mixture of isomers) [Example 37, 2-((S)-3-(1-(1-((R)-1-(2,4-Dichlorophenyl)ethyl)-3-methyl-1H-pyrazolo[3,4-d]pyrimidin-6-yl)azetidin-3-yl)piperidin-1-yl)ethan-1-ol and 2-((R)-3-(1-(1-((R)-1-(2,4-dichlorophenyl)ethyl)-3-methyl-1H-pyrazolo[3,4-d]pyrimidin-6-yl)azetidin-3-yl)piperidin-1-yl)ethan-1-ol]"
11,< 100,"Cc1nn([C@H](C)c2ccc(Cl)cc2Cl)c2nc(N3CC(C4CCCN(CCO)C4)C3)cnc12 (mixture of isomers) [Example 40, 2-((S)-3-(1-(1-((R)-1-(2,4-Dichlorophenyl)ethyl)-3-methyl-1H-pyrazolo[3,4-b]pyrazin-6-yl)azetidin-3-yl)piperidin-1-yl)ethan-1-ol and 2-((R)-3-(1-(1-((R)-1-(2,4-dichlorophenyl)ethyl)-3-methyl-1H-pyrazolo[3,4-b]pyrazin-6-yl)azetidin-3-yl)piperidin-1-yl)ethan-1-ol]"

row,Compound,IC50 [nM]
1,"1-((R)-1-(2,4-Dichlorophenyl)ethyl)-6-(3-((S)-1-(2-hydroxyethyl)piperidin-3-yl)azetidin-1-yl)-1H-pyrazolo[3,4-b]pyrazine-3-carbonitrile and 1-((S)-1-(2,4-dichlorophenyl)ethyl)-6-(3-((S)-1-(2-hydroxyethyl)piperidin-3-yl)azetidin-1-yl)-1H-pyrazolo[3,4-b]pyrazine-3-carbonitrile [Example 34]",< 100
2,"1-((R)-1-(2,4-Dichlorophenyl)ethyl)-6-(3-((S)-1-(2-hydroxyethyl)piperidin-3-yl)azetidin-1-yl)-1H-pyrazolo[3,4-b]pyrazine-3-carboxamide and 1-((S)-1-(2,4-dichlorophenyl)ethyl)-6-(3-((S)-1-(2-hydroxyethyl)piperidin-3-yl)azetidin-1-yl)-1H-pyrazolo[3,4-b]pyrazine-3-carboxamide [Example 41]",< 100
3,"4-((S)-3-(1-(1-((R)-1-(2,4-Dichlorophenyl)ethyl)-3-methyl-1H-pyrazolo[3,4-b]pyrazin-6-yl)azetidin-3-yl)piperidin-1-yl)butanoic acid and 4-((R)-3-(1-(1-((R)-1-(2,4-dichlorophenyl)ethyl)-3-methyl-1H-pyrazolo[3,4-b]pyrazin-6-yl)azetidin-3-yl)piperidin-1-yl)butanoic acid [Example 17]",< 100
4,"4-((S)-3-(1-(1-((R)-1-(2,4-Dichlorophenyl)ethyl)-3-methyl-1H-pyrazolo[3,4-d]pyrimidin-6-yl)azetidin-3-yl)piperidin-1-yl)butanoic acid and 4-((R)-3-(1-(1-((R)-1-(2,4-dichlorophenyl)ethyl)-3-methyl-1H-pyrazolo[3,4-d]pyrimidin-6-yl)azetidin-3-yl)piperidin-1-yl)butanoic acid [Example 20]",100 to 500
